# Data as given in patent publication US20050113450A1, “Antibacterial agents” (priority 2002, published 2005).
# Test system: SA 9218
# Test: MIC by standard agar dilution method
# Type: cell-based
# Details: Mueller Hinton agar, 10^4 to 10^5 cells per spot, incubated overnight at 35° C., lowest concentration that inhibits visible growth
# Outline: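 Agar dilution: two-fold compound dilutions mixed into molten Mueller Hinton agar, spots of ~10^4–10^5 cells from 0.5 McFarland suspension diluted 1:20 in TSB. Incubated overnight at 35 °C; MIC is lowest concentration inhibiting visible growth.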
Structure (SMILES),MIC,SA 9218 MIC
Cc1ccc(S(=O)(=O)N2CCN(c3ccc(Cl)cc3)CC2)cc1C(=O)Nc1ccc(Br)cc1C(=O)O,32 µg/mL,–
O=C(Nc1ccc(Cl)cc1C(=O)O)c1cccc(C(=O)C2CCCO2)c1 (centres unmarked),64 µg/mL,–
N#Cc1ccc(NC(=O)c2cccc(C(=O)C3CCCC3)c2)c(C(=O)O)c1 [PHA-570042],2 µg/mL,–
N#Cc1ccc(NC(=O)c2cccc(S(=O)(=O)N3CCc4ccccc43)c2)c(C(=O)O)c1 [PHA-571161],> 128 µg/mL,–
CCOCCOCCOc1ccc(C(=O)Nc2ccc(Br)cc2C(=O)O)cc1,128 µg/mL,–
CC(C)Oc1cccc(C(=O)Nc2ccc(Br)cc2C(=O)O)c1,2 µg/mL,–
CN(CCC(O)c1ccccc1)S(=O)(=O)c1cccc(C(=O)Nc2ccc(C#N)cc2C(=O)O)c1 (centres unmarked) [PHA-571196],64 µg/mL,–
COc1cc(COc2cccc(C(=O)Nc3ccc(Br)cc3C(=O)O)c2)ccc1[N+](=O)[O-] [PHA-571282],16 µg/mL,–
CC(=O)c1ccc(NC(=O)Nc2cccc(C(=O)Nc3ccc(Br)cc3C(=O)O)c2)cc1 [PHA-713401],32 µg/mL,–
Cc1ccc(S(=O)(=O)Nc2cccc(C(=O)Nc3ccc(Br)cc3C(=O)O)c2)cc1,0.5 µg/mL,–
CCCC(=O)C(CCC)Oc1cccc(C(=O)Nc2ccc(Br)cc2C(=O)O)c1 (centres unmarked),2 µg/mL,–
CN(CCc1ccccc1)S(=O)(=O)c1ccc(C(=O)Nc2ccc(C#N)cc2C(=O)O)cc1 [PHA-571169],32 µg/mL,–
COc1ccc(C(=O)Nc2ccc(Br)cc2C(=O)O)cc1S(=O)(=O)NCc1ccc(N(C)C)cc1,> 128 µg/mL,–
O=C(Nc1ccc(Br)cc1C(=O)O)c1cccc(NS(=O)(=O)c2ccccc2)c1 [PHA-713409],1 µg/mL,–
O=C(O)c1cc([N+](=O)[O-])ccc1/C=C/c1cccc(S(=O)(=O)N2CCc3cc(Cl)ccc32)c1 [PHA-568196],1 µg/mL,–
N#Cc1ccc(NC(=O)c2cccc(S(=O)(=O)N3CCC3)c2)c(C(=O)O)c1 [PHA-571167],32 µg/mL,–
N#Cc1ccc(NC(=O)c2ccc(S(=O)(=O)N3CCCC4CCCCC43)cc2)c(C(=O)O)c1 (centres unmarked) [PHA-571249],16 µg/mL,–
CC(=O)Oc1ccc(N2C(=O)c3ccc(C(=O)Nc4ccc(Br)cc4C(=O)O)cc3C2=O)cc1,64 µg/mL,–
CC(C(O)c1ccccc1)N(C)S(=O)(=O)c1cccc(C(=O)Nc2ccc(C#N)cc2C(=O)O)c1 (centres unmarked) [PHA-571226],64 µg/mL,–
O=C(Nc1ccc(Br)cc1C(=O)O)c1ccc(S(=O)(=O)Nc2nc[nH]n2)cc1 [PNU-282859],32 µg/mL,–
O=C(CCC1CCCC1)c1cccc(C(=O)Nc2ccc(Cl)cc2C(=O)O)c1 [PHA-656891],16 µg/mL,–
COc1cc(C(=O)Nc2ccc(Br)cc2C(=O)O)ccc1[N+](=O)[O-],32 µg/mL,–
COCCOc1ccc(C(=O)Nc2ccc(Br)cc2C(=O)O)cc1,128 µg/mL,–
O=C(Nc1ccc(Br)cc1C(=O)O)c1cccc(S(=O)(=O)N2CCOCC2)c1 [PHA-571396],4 µg/mL,–
N#Cc1ccc(NC(=O)c2cccc(S(=O)(=O)n3ccc4cc(F)ccc43)c2)c(C(=O)O)c1 [PHA-568461],0.125 µg/mL,–
O=C(Nc1ccc(Br)cc1C(=O)O)c1ccc2c(c1)C(=O)N(CC1CCCO1)C2=O (centres unmarked),8 µg/mL,–

Structure (SMILES),MIC,SA 9218 MIC
O=C(Nc1ccc(Cl)cc1C(=O)O)c1cccc(C(=O)C2CC2)c1 [PHA-656890],16 µg/mL,–
CC1CCCN(S(=O)(=O)c2ccc(C(=O)Nc3ccc(C#N)cc3C(=O)O)cc2)C1 (centres unmarked) [PHA-571241],16 µg/mL,–
O=C(Nc1ccc(C(=O)Nc2ccc(Br)cc2C(=O)O)cc1)Nc1ccc(F)cc1F [PHA-713394],128 µg/mL,–
CC(=O)NCc1ccc(C(=O)Nc2ccc(C#N)cc2C(=O)O)cc1S(=O)(=O)N1CCc2ccccc21 [PHA-740499],128 µg/mL,–
O=C(Nc1ccc(Br)cc1C(=O)O)c1cc(S(=O)(=O)Nc2ccc(F)c(Cl)c2)ccc1Br,32 µg/mL,–
O=C(Nc1ccc(Cl)cc1C(=O)O)c1cccc(C(NCc2cccc(Cl)c2)c2ccco2)c1 (centres unmarked),8 µg/mL,–
CN(C)c1ccc(C(=O)c2cccc(C(=O)Nc3ccc(Cl)cc3C(=O)O)c2)cc1,4 µg/mL,–
CC(C)CN(CC(C)C)S(=O)(=O)c1ccc(C(=O)Nc2ccc(C#N)cc2C(=O)O)cc1 [PHA-656811],32 µg/mL,–
CN(c1ccc(Cl)cc1)S(=O)(=O)c1cccc(C(=O)Nc2ccc(Br)cc2C(=O)O)c1 [PNU-283076],1 µg/mL,–
CCOc1ccc(C(=O)Nc2ccc(Br)cc2C(=O)O)cc1OCC,> 128 µg/mL,–
Cc1ccc(C(=O)Nc2ccc(Br)cc2C(=O)O)cc1S(=O)(=O)N1CCc2ccccc21,1 µg/mL,–
CN(C)c1ccc(C(=O)Nc2ccc(C#N)cc2C(=O)O)cc1 [PHA-571157],32 µg/mL,–
O=C(Nc1ccc(Cl)cc1C(=O)O)c1cccc(C(=O)c2ccc3ccccc3n2)c1 [PHA-656880],16 µg/mL,–
N#Cc1ccc(NC(=O)c2cccc(S(=O)(=O)N3CCN(c4ncccn4)CC3)c2)c(C(=O)O)c1 [PHA-571170],64 µg/mL,–
N#Cc1ccc(NC(=O)c2ccc(Oc3ccccc3)cc2)c(C(=O)O)c1 [PHA-561055],1 µg/mL,–
O=C(Nc1ccc(C(=O)Nc2ccc(Br)cc2C(=O)O)cc1)c1ccc(Cl)nc1 [PHA-713390],> 128 µg/mL,–
Cc1c(C(=O)Nc2ccc(Br)cc2C(=O)O)cccc1S(=O)(=O)N(C)c1ccc(Cl)cc1 [PHA-717196],4 µg/mL,–
CN(CCc1ccccn1)S(=O)(=O)c1cccc(C(=O)Nc2ccc(C#N)cc2C(=O)O)c1 [PHA-656872],> 128 µg/mL,–
O=C(Nc1ccc(Br)cc1C(=O)O)c1ccc(OCc2ccncc2)cc1,> 128 µg/mL,–
N#Cc1ccc(NC(=O)c2ccc(S(=O)(=O)N3CCC(C#N)(c4ccccc4)CC3)cc2)c(C(=O)O)c1 [PHA-571188],8 µg/mL,–
O=C(Nc1ccc(C(=O)Nc2ccc(Br)cc2C(=O)O)cc1)Nc1cc(Cl)cc(Cl)c1 [PHA-713397],> 128 µg/mL,–
CCCCOc1ccc(C(=O)Nc2ccc(Br)cc2C(=O)O)cc1,8 µg/mL,–
COc1ccccc1C(=O)c1cccc(C(=O)Nc2ccc(Cl)cc2C(=O)O)c1 [PHA-656885],16 µg/mL,–
CC1CCCN1S(=O)(=O)c1ccc(C(=O)Nc2ccc(C#N)cc2C(=O)O)cc1 (centres unmarked) [PHA-656871],128 µg/mL,–
N#Cc1ccc(C(=O)Nc2ccc(C#N)cc2C(=O)O)cc1,> 128 µg/mL,–
"CON=C(c1ccccc1)c1cccc(C(=O)Nc2ccc(Br)cc2C(=O)O)c1 [PHA-522146, 5-Bromo-2-({3-[(methoxyimino)(phenyl)methyl]benzoyl}amino)benzoic acid]",0.5 µg/mL,–

Structure (SMILES),MIC,SA 9218 MIC
Cc1ncc([N+](=O)[O-])n1CCOc1ccc(C(=O)Nc2ccc(Br)cc2C(=O)O)cc1,128 µg/mL,–
CCC1CCCCN1S(=O)(=O)c1ccc(C(=O)Nc2ccc(C#N)cc2C(=O)O)cc1 (centres unmarked) [PHA-571189],64 µg/mL,–
O=C(Nc1ccc(Br)cc1C(=O)O)c1ccc(O)cc1,32 µg/mL,–
O=C(Nc1ccc(-c2cccc(C(F)(F)F)c2)cc1C(=O)O)c1cccc(S(=O)(=O)N2CCc3cc(Cl)ccc32)c1 [PHA-563284],2 µg/mL,–
O=C(Nc1ccc(Cl)cc1C(=O)O)c1ccc(SCc2ccccc2)c([N+](=O)[O-])c1 [PNU-283604],4 µg/mL,–
CCOc1ccc(C(=O)Nc2ccc(C#N)cc2C(=O)O)cc1OCC,128 µg/mL,–
O=C(Nc1ccc(I)cc1C(=O)O)c1cccc(S(=O)(=O)N2CCN(c3ccccn3)CC2)c1,32 µg/mL,–
CCCCN(CCO)S(=O)(=O)c1ccc(C(=O)Nc2ccc(C#N)cc2C(=O)O)cc1 [PHA-656867],64 µg/mL,–
N#Cc1ccc(C(=O)Nc2ccc(Br)cc2C(=O)O)cc1,128 µg/mL,–
O=C(Nc1ccc(Cl)cc1C(=O)O)c1ccccc1,128 µg/mL,–
Cc1ccc(C(=O)Nc2ccc(Br)cc2C(=O)O)cc1S(=O)(=O)NC1Cc2ccccc2C1,0.25 µg/mL,–
COc1ccc(Br)c(C(=O)Nc2ccc(Br)cc2C(=O)O)c1,128 µg/mL,–
CC(C(O)c1ccccc1)N(C)S(=O)(=O)c1ccc(C(=O)Nc2ccc(C#N)cc2C(=O)O)cc1 (centres unmarked) [PHA-571242],32 µg/mL,–
N#Cc1ccc(NC(=O)c2ccc(S(=O)(=O)N3CCC3)cc2)c(C(=O)O)c1 [PHA-571239],128 µg/mL,–
N#Cc1ccc(NC(=O)c2ccc(C#Cc3ccccc3)cc2)c(C(=O)O)c1 [PHA-568907],8 µg/mL,–
O=C(Nc1ccc(Br)cc1C(=O)O)c1ccc(OCCN2C(=O)CCC2=O)cc1,> 128 µg/mL,–
O=C(Nc1ccc(Br)cc1C(=O)O)c1cccc(C(O)c2ccccc2)c1 (centres unmarked) [PHA-566948],1 µg/mL,–
O=Cc1cccc(C(=O)Nc2ccc(Br)cc2C(=O)O)c1,> 128 µg/mL,–
Cc1ccccc1-c1ccc(NC(=O)c2cccc(S(=O)(=O)N3CCc4cc(Cl)ccc43)c2)c(C(=O)O)c1 [PHA-568205],2 µg/mL,–
O=C(Nc1ccc(Br)cc1C(=O)O)c1cccc(OCCN2CCCC2=O)c1,32 µg/mL,–
CCCC(Oc1ccc(C(=O)Nc2ccc(Br)cc2C(=O)O)cc1)C(=O)OCC (centres unmarked) [drawing 1052],–,64 µg/mL
O=C(Nc1ccc(Br)cc1C(=O)O)c1cccc(S(=O)(=O)N2CCc3ccccc32)c1 [PHA-520938],1 µg/mL,–
CN(c1ccc(Cl)cc1)S(=O)(=O)c1cc(Br)cc(C(=O)Nc2ccc(Cl)cc2C(=O)O)c1 [PHA-509059],0.5 µg/mL,–
CCCNC(c1ccccc1)c1cccc(C(=O)Nc2ccc(Cl)cc2C(=O)O)c1 (centres unmarked),8 µg/mL,–
COc1cc(C(=O)Nc2ccc(Br)cc2C(=O)O)cc(OC)c1OC,32 µg/mL,–
